# How the values were obtained:
# CDK4/D1 = CDK4/D1 (Homo sapiens, UniProt P11802); test: ADP Glo Kinase assay CDK4/D1; assay type: biochemical; conditions: CDK4D1; for Ki: read-out: CDK inhibition, Ki (μM) CDK4D1; for remaining activity at 10 µM: compound at 10 μM, read-out: residual activity (%) at 10 μM CDK4D1
# Experimental: (§1) Eurofins Pharma Discovery or Reaction Biology Corporation Kinase Profiler services were used to measure inhibition of CDKs and other kinases by radiometric assay. Inhibition of CDK4/D1, CDK6/D3 and CDK9/T1 were also determined in-house using ADP Glo Kinase assays (Promega Corporation, Madison, USA). Briefly, the kinase reaction for CDK4/D1 and CDK6/D3 was performed with kinase reaction buffer ([…] Tris base pH 7.5, 20 mM MgCl2, 0.4 mM DTT), 0.1 mg/ml BSA and RB-CTF substrate (retinoblastoma protein 1 C-terminal fraction). For CDK9/CyclinT1, the kinase reaction was performed with standard assay buffer and Kinase Dilution Buffer and RBER-IRStide substrate. Serial dilutions of 1:3 were prepared for test compounds for 10 concentrations (from 10 μM to 0.5 nM). The kinase reactions were started by addition of ATP, incubated for 40 min at 37° C. and then stopped by adding 10 μL of ADP Glo reagent. After incubation at room temperature in the dark for 40 min, 20 μL of kinase detection reagent was added per well and incubated for 40 min. Luminescence was measured using an EnVision Multilabel plate reader (PerkinElmer, Buckinghamshire, UK). Positive and negative controls were performed in the presence and absence of CDK kinases, respectively. Half-maximal inhibition (IC50) values were calculated using a 4-parameter logistic non-linear regression model with Graphpad prism (Version 6.0). Apparent inhibition constants (Ki) values were calculated from Km (ATP) and IC50 values for the respective kinases.
# CDK9/T1 = CDK9/T1 (Homo sapiens, UniProt P50750); test: ADP Glo Kinase assay CDK9/T1; assay type: biochemical; conditions: CDK9T1; read-out: CDK inhibition, Ki (μM) CDK9T1
# Experimental: as §1
# CDKs and other kinases [1] = biological target: T1, CDKs and other kinases (Homo sapiens, UniProt P06493); test: Radiometric kinase assay (Eurofins Pharma Discovery or Reaction Biology Corporation Kinase Profiler); assay type: biochemical; conditions: CDK1B; for Ki: read-out: CDK inhibition, Ki (μM) CDK1B; for remaining activity at 10 µM: compound at 10 μM, read-out: residual activity (%) at 10 μM CDK1B
# T1 construct: other: CDK1B; residual activity (%) at 10 μM CDK1B; compound at 10 μM
# Experimental: as §1
# CDKs and other kinases [2] = biological target: T2, CDKs and other kinases (Homo sapiens, UniProt P24941); test: as above; assay type: biochemical; conditions: CDK2A; for Ki: read-out: CDK inhibition, Ki (μM) CDK2A; for remaining activity at 10 µM: compound at 10 μM, read-out: residual activity (%) at 10 μM CDK2A
# T2 construct: other: CDK2A; residual activity (%) at 10 μM CDK2A; compound at 10 μM
# Experimental: as §1
# CDKs and other kinases [3] = biological target: T3, CDKs and other kinases (Homo sapiens, UniProt P50613); test: as above; assay type: biochemical; conditions: CDK7H; for Ki: read-out: CDK inhibition, Ki (μM) CDK7H; for remaining activity at 10 µM: compound at 10 μM, read-out: residual activity (%) at 10 μM CDK7H
# T3 construct: other: CDK7H; residual activity (%) at 10 μM CDK7H; compound at 10 μM
# Experimental: as §1
# leukemia cell lines = test: Resazurin cell viability assay on leukemia cell lines (72 h growth inhibition, GI50); assay type: cell-based; conditions: Homo sapiens, MV4-11 cells
# Experimental: Compounds from Example 1 were subjected to a standard MTT (3-(4,5-dimethylthiazol-2-yl)-2,5-diphenyltetrazolium bromide) and resazurin assays on solid tumour cell lines and leukemia cell lines, respectively, as previously reported (Wang S et al., J Med Chem 47:1662-1675, 2004 and Diab S. et al. CheMedChem 9:962-972, 2014). Compound concentrations required to inhibit 50% of cell growth (GI50) were calculated using non-linear regression analysis.
# T1 sequence (P06493 whole entry): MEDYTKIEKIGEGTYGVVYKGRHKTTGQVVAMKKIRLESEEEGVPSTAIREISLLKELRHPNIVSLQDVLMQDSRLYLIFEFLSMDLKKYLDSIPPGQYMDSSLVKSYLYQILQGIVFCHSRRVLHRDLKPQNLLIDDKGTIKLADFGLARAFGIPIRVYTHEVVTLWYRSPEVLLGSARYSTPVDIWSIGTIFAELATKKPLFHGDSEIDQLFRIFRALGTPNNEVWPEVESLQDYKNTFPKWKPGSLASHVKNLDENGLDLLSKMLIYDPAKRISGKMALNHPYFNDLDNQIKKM
# CDK9/T1, sequence (P50750 whole entry): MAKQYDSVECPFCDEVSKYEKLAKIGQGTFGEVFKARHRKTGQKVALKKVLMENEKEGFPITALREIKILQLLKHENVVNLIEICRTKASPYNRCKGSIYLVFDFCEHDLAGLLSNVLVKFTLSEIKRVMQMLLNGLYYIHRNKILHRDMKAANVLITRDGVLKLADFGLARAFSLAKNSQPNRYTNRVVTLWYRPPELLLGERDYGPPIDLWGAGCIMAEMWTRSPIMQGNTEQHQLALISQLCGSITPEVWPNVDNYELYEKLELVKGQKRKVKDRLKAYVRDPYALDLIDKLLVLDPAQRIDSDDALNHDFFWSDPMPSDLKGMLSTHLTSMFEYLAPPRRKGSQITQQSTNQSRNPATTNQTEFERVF
# CDK9/T1, sequence (O60563 whole entry partner): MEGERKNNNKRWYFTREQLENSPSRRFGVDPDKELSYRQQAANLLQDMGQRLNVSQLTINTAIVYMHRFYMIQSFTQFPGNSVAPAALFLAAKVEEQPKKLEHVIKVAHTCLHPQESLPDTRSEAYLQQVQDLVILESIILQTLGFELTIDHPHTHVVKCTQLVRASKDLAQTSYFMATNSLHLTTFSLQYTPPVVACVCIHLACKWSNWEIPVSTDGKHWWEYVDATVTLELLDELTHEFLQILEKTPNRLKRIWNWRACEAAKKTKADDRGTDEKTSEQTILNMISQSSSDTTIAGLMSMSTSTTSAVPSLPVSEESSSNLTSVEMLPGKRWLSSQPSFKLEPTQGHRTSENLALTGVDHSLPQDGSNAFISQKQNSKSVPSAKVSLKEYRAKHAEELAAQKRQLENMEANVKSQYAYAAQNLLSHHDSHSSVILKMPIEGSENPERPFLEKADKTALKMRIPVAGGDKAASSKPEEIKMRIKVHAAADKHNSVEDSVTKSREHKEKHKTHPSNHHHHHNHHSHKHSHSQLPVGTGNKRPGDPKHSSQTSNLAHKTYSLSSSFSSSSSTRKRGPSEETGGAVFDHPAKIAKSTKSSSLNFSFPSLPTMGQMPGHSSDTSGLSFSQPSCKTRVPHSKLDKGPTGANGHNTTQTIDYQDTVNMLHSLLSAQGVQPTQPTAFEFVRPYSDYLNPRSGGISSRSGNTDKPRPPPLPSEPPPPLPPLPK
# CDK4/D1, sequence (P11802 whole entry): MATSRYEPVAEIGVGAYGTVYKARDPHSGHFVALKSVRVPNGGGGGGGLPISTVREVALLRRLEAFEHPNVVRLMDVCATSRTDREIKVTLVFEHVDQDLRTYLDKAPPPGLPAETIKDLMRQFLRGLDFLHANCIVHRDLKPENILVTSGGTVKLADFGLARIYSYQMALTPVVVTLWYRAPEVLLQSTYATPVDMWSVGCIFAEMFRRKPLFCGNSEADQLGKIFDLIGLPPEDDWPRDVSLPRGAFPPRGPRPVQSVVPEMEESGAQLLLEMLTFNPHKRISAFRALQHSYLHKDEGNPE
# CDK4/D1, sequence (P24385 whole entry partner): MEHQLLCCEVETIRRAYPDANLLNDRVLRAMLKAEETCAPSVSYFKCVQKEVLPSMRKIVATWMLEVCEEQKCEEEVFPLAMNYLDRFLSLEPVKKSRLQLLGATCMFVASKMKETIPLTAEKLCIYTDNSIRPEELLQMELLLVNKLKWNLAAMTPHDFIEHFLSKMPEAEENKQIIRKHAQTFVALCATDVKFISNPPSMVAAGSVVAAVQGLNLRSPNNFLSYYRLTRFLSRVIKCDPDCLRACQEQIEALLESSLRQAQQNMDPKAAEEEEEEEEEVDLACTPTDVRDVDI
# T3 sequence (P50613 whole entry): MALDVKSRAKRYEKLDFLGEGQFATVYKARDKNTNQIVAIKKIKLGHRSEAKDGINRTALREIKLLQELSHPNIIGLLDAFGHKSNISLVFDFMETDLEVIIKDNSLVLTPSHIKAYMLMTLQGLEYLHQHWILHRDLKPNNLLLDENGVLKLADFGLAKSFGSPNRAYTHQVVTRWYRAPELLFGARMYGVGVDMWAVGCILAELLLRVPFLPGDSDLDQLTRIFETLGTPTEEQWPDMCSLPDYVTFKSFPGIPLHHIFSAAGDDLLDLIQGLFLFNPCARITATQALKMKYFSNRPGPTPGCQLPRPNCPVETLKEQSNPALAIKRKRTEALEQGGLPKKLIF
Ki (CDK4/D1),Ki (CDK9/T1),Ki (CDKs and other kinases [1]),Ki (CDKs and other kinases [2]),Ki (CDKs and other kinases [3]),GI50 (leukemia cell lines),remaining activity at 10 µM (CDK4/D1),remaining activity at 10 µM (CDKs and other kinases [1]),remaining activity at 10 µM (CDKs and other kinases [2]),remaining activity at 10 µM (CDKs and other kinases [3]),SMILES
0.004 µM,0.078 µM,0.795 µM,0.527 µM,0.27 µM,0.084 ± 0.008 µM,,,,,"CN1CCC(Nc2ncc(F)c(-c3cnc4ccccn34)n2)CC1 [Compound 19, 5-Fluoro-4-(imidazo[1,2-a]pyridin-3-yl)-N-(1-methylpiperidin-4-yl)pyrimidin-2-amine]"
,0.829 µM,,,1.75 µM,0.092 ± 0.01 µM,29%,56%,54%,,"CC(C)(C)OC(=O)N1CCC(Nc2ncc(F)c(-c3cnc4ccccn34)n2)CC1 [Compound 20, tert-Butyl 4-((5-fluoro-4-(imidazo[1,2-a]pyridin-3-yl)pyrimidin-2-yl)amino)piperidine-1-carboxylate]"
,0.069 µM,0.479 µM,0.321 µM,0.6 µM,0.003 ± 0.001 µM,-11%,,,,"Fc1cnc(NC2CCNCC2)nc1-c1cnc2ccccn12 [Compound 21, 5-Fluoro-4-(imidazo[1,2-a]pyridin-3-yl)-N-(piperidin-4-yl)pyrimidin-2-amine]"
,0.027 µM,,,,0.003 ± 0.001 µM,21%,10%,7%,12%,"COc1cnc(N[C@H]2CC[C@H](N)CC2)nc1-c1cnc2ccc(-c3ccccc3)cn12 [Compound 89, (1r,4r)-N^1-(5-Methoxy-4-(6-phenylimidazo[1,2-a]pyridin-3-yl)pyrimidin-2-yl)cyclohexane-1,4-diamine]"
0.87 µM,0.015 µM,,,,0.023 ± 0.01 µM,,31%,4%,29%,"Cc1cnc(NC2CCC(N(C)C)CC2)nc1-c1cnc2ccc(Nc3cncc(F)c3)cn12 (stereo not shown) [Compound 120, N^1-(4-(6-((5-Fluoropyridin-3-yl)amino)imidazo[1,2-a]pyridin-3-yl)-5-methylpyrimidin-2-yl)-N^4,N^4-dimethylcyclohexane-1,4-diamine]"
,> 5 µM,,,,> 5 µM,,87%,34%,91%,"Cc1cnc(N2CCC3(CCNC3=O)CC2)nc1-c1cnc2ccccn12 [Compound 124, 8-(4-(Imidazo[1,2-a]pyridin-3-yl)-5-methylpyrimidin-2-yl)-2,8-diazaspiro[4.5]decan-1-one]"
,0.111 µM,,0.089 µM,,> 5 µM,14%,2%,,94%,"Cc1cnc(N[C@H]2CC[C@H](NS(C)(=O)=O)CC2)nc1-c1cnc2ccc(Nc3cncnc3)cn12 [Compound 126, N-((1r,4r)-4-((5-Methyl-4-(6-(pyrimidin-5-ylamino)imidazo[1,2-a]pyridin-3-yl)pyrimidin-2-yl)amino)cyclohexyl)methanesulfonamide]"
,0.31 µM,,0.706 µM,,0.068 ± 0.006 µM,38%,45%,,34%,"Cc1cnc(N[C@H]2CC[C@H](N)CC2)nc1-c1cnc2ccc(Nc3ccccn3)cn12 [Compound 128, (1r,4r)-N^1-(5-Methyl-4-(6-(pyridin-2-ylamino)imidazo [1,2-a]pyridin-3-yl)pyrimidin-2-yl)cyclohexane-1,4-diamine]"
,1.12 µM,,,,0.172 ± 0.001 µM,23%,25%,23%,40%,"COCCN[C@H]1CC[C@@H](Nc2ncc(C)c(-c3cnc4ccc(-c5ccccc5)cn34)n2)CC1 [Compound 130, (1s,4s)-N^1-(2-Methoxyethyl)-N^4-(5-methyl-4-(6-phenylimidazo[1,2-a]pyridin-3-yl)pyrimidin-2-yl) cyclohexane-1,4-diamine]"
,0.32 µM,,,,0.132 ± 0.059 µM,24%,29%,44%,20%,"CCN[C@H]1CC[C@H](Nc2ncc(C)c(-c3cnc4ccc(-c5ccccc5)cn34)n2)CC1 [Compound 131, (1r,4r)-N^1-Ethyl-N^4-(5-methyl-4-(6-phenylimidazo[1,2-a]pyridin-3-yl)pyrimidin-2-yl)cyclohexane-1,4-diamine]"
,1.12 µM,,,,0.012 ± 0.008 µM,16%,25%,23%,40%,"CCN[C@H]1CC[C@@H](Nc2ncc(C)c(-c3cnc4ccc(-c5ccccc5)cn34)n2)CC1 [Compound 132, (1s,4s)-N^1-ethyl-N^4-(5-Methyl-4-(6-phenylimidazo[1,2-a]pyridin-3-yl)pyrimidin-2-yl)cyclohexane-1,4-diamine]"
,1.14 µM,,,,0.564 ± 0.047 µM,28%,61%,57%,13%,"Cc1cnc(N[C@H]2CC[C@H](N3CCC3)CC2)nc1-c1cnc2ccc(-c3ccccc3)cn12 [Compound 135, N-((1r,4r)-4-(Azetidin-1-yl)cyclohexyl)-5-methyl-4-(6-phenylimidazo[1,2-a]pyridin-3-yl)pyrimidin-2-amine]"
,2.77 µM,,,,0.297 ± 0.001 µM,48%,22%,59%,36%,"Cc1cnc(N[C@H]2CC[C@@H](N3CCC3)CC2)nc1-c1cnc2ccc(-c3ccccc3)cn12 [Compound 136, N-((1s,4s)-4-(Azetidin-1-yl)cyclohexyl)-5-methyl-4-(6-phenylimidazo[1,2-a]pyridin-3-yl)pyrimidin-2-amine]"
,0.003 µM,,,0.04 µM,< 0.01 µM,7%,3%,0%,,"Fc1cnc(N[C@H]2CC[C@H](N3CCCC3)CC2)nc1-c1cnc2ccc(-c3ccccc3)cn12 [Compound 137, 5-Fluoro-4-(6-phenylimidazo[1,2-a]pyridin-3-yl)-N-((1r,4r)-4-(pyrrolidin-1-yl)cyclohexyl)pyrimidin-2-amine]"
,0.006 µM,0.076 µM,0.111 µM,,< 0.001 µM,6%,,,0%,"Fc1cnc(N[C@H]2CC[C@H](N3CCC3)CC2)nc1-c1cnc2ccc(-c3ccccc3)cn12 [Compound 138, N-((1r,4r)-4-(Azetidin-1-yl)cyclohexyl)-5-fluoro-4-(6-phenylimidazo[1,2-a]pyridin-3-yl)pyrimidin-2-amine]"
,0.016 µM,0.074 µM,,0.094 µM,,3%,,6%,,"Fc1cnc(N[C@H]2CC[C@H](NC3CCOCC3)CC2)nc1-c1cnc2ccc(-c3ccccc3)cn12 [Compound 161, (1r,4r)-N^1-(5-fluoro-4-(6-phenylimidazo[1,2-a]pyridin-3-yl)pyrimidin-2-yl)-N^4-(tetrahydro-2H-pyran-4-yl) cyclohexane-1,4-diamine]"
